Experimental data taken from patent publication US4193996A, “Spiro-quinolone hydantoins” (Pfizer Inc., priority 1979, dated 1980).

Key:
[1] = system: aldose reductase; experiment: Inhibition of aldose reductase enzyme activity (partially purified enzyme from calf lens); type: biochemical
Method: The compounds of Examples 3 and 4 were tested for their ability to reduce or inhibit aldose reductase enzyme activity, following the procedure described in U.S. Pat. No. 3,821,383 and based on the procedure of Hayman et. al., Journal of Biological Chemistry, 240, 877 (1965). The substrate employed was partially purified aldose reductase enzyme obtained from calf lens.

[2] = system: sorbitol accumulation in the sciatic nerve; experiment: Inhibition of sorbitol accumulation in the sciatic nerve of streptozotocinized (diabetic) rats; type: in vivo, rat; conditions: oral, at 4, 8 and 24 hours after streptozotocin, measured 27 hours after induction of diabetes
Method: The compounds of Examples 3 and 4 were tested for their ability to reduce or inhibit sorbitol accumulation in the sciatic nerve of streptozotocinized (i.e. diabetic) rats by the procedure essentially described in U.S. Pat. No. 3,821,383. In the present study, the amount of sorbitol accumulation in the sciatic nerves was measured 27 hours after induction of diabetes. The compounds were administered orally at the dose levels indicated at 4, 8 and 24 hours following the administration of streptozotocin. The results obtained in this manner are presented below in terms of percent inhibition (%) afforded by the test compound as compared to the case where no compound was administered (i.e. the untreated animal, where sorbitol levels normally rise from approximately […]. tissue in the 27-hour test period): […]

Row | % Inhibition at 10^-6 m (inhibition of aldose reductase enzyme activity) [1] | Structure (SMILES) | % Inhibition at 1.5 mg/kg (sorbitol accumulation in the sciatic nerve vs untreated) [2]
1 | 94% | O=C1NC(=O)C2(CCn3c(=O)ccc4cc(Cl)cc2c43)N1 (stereo not shown) [Example 4, 10-Chloro-spiro[2,3-dihydro-1H, 5H-benzo[ij]quinolizin[1,4']imidazolidin]-2', 5, 5'-trione] | 32%
2 | 86% | O=C1NC(=O)C2(CCn3c(=O)ccc4cccc2c43)N1 (stereo not shown) [Example 3, Spiro[2,3-dihydro-1H, 5H-benzo[ij]quinolizin [1,4']imidazolidin]-2', 5, 4'-trione] | 27%
